Measured values from paper PMC5438914 (SLAS discovery, 2016).
Like-named read-outs stand apart in the source and are kept apart here.

Columns and labels:
[1] = system: EF-Tu, EF-Ts, EF-G, and PheRS; experiment: specificity assays against the accessory proteins of the A/T system; assay type: biochemical, Pseudomonas aeruginosa; conditions: tested against each of the four accessory proteins
S. aureus = experiment: time-kill experiments; conditions: 4× MIC; for bacteriostatic or bactericidal: 0 to 24 h
H. influenzae = experiment: time-kill experiments; conditions: 4× MIC; for bacteriostatic or bactericidal: 0 to 24 h
[2] = system: human embryonic kidney 293 cells (HEK-293)
PheRS [3] = biological target: T1, PheRS (Pseudomonas aeruginosa, UniProt Q9I0A3+Q9I0A4); experiment: tRNA aminoacylation assay; assay type: biochemical
[4] = biological target: T2, human mitochondrial PheRS (hmPheRS) (Homo sapiens, UniProt O95363); experiment: hmPheRS aminoacylation assay; assay type: biochemical; conditions: 0.4 to 200 µM; at high concentrations
T2 sequence (O95363 1-451): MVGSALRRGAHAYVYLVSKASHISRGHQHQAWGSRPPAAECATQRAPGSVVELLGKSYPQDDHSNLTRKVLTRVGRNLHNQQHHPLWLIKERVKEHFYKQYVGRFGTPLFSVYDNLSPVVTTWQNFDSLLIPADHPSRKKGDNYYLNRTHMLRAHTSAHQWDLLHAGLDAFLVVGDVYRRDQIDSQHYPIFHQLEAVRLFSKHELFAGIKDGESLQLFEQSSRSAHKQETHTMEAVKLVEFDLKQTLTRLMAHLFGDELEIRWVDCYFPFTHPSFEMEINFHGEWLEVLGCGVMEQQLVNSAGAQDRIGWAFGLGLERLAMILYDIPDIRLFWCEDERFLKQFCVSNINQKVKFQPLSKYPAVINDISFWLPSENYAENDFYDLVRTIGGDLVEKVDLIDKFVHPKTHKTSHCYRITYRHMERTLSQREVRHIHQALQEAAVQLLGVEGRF

PheRS [5] = biological target: T1, PheRS; experiment: competition assays with PheRS substrates ATP and Phe; assay type: biochemical; conditions: IC50 at ATP 25-1000 µM or Phe 25-300 µM; data not shown
[6] = system: human embryonic kidney 293 cells (HEK-293); experiment: MTT cytotoxicity test; conditions: HEK-293, MTT, 24 h
[7] = system: eukaryotic protein synthesis in wheat germ cell extract; experiment: wheat germ cell extract poly-Phe protein synthesis assay; assay type: biochemical; conditions: at 30 µM

T1 sequence (Q9I0A3 whole entry): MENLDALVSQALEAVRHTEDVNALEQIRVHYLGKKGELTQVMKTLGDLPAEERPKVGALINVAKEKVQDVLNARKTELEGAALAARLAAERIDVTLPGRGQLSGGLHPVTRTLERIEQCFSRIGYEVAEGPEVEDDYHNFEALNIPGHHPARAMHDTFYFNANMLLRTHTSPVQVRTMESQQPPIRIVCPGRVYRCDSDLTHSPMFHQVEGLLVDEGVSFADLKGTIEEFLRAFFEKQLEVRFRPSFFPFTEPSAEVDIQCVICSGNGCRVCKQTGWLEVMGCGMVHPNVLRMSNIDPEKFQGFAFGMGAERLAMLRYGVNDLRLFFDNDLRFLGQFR
T1 sequence (Q9I0A4 whole entry): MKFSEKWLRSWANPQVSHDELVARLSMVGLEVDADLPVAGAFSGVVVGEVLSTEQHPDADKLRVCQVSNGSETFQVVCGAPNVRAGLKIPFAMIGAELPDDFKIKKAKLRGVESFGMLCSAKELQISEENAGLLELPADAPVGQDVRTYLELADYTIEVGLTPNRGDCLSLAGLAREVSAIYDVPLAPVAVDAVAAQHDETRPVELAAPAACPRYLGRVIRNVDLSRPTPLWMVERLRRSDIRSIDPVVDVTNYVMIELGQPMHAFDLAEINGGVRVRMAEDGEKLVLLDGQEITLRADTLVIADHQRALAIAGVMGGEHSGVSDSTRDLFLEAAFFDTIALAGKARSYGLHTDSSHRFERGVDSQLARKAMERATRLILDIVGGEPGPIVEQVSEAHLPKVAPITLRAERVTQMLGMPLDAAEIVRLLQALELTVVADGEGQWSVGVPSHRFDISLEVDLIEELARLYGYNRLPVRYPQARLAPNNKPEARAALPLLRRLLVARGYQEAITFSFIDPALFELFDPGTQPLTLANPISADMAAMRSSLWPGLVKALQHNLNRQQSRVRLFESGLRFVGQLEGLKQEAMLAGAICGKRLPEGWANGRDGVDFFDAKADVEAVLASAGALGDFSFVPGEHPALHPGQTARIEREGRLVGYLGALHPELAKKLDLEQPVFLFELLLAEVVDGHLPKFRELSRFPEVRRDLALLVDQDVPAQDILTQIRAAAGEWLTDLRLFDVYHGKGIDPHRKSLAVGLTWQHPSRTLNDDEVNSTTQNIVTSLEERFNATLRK

| SMILES | specificity for a single component of the A/T assay [1] | bacteriostatic or bactericidal (S. aureus) | growth in time-kill cultures (S. aureus; up to 24 h) | bacteriostatic or bactericidal (H. influenzae) | growth in time-kill cultures (H. influenzae; up to 24 h) | IC50 (or CC50) for inhibition of cell growth [2] | IC50 (PheRS [3]) | effect on the activity of hmPheRS [4] | mechanism of inhibition with respect to ATP and Phe (PheRS [5]) | IC50 (or CC50) for inhibition of cell growth [6] | decrease in colony-forming units (CFU) compared with the control (S. aureus; during the first 6 h) | decrease in colony-forming units (CFU) compared with the control (H. influenzae; during the first 6 h) | inhibition of protein synthesis [7] |
| --- | --- | --- | --- | --- | --- | --- | --- | --- | --- | --- | --- | --- | --- |
| N=C(N)NN=C(/C=C/c1ccc([N+](=O)[O-])o1)/C=C/c1ccc([N+](=O)[O-])o1 [BT06D07, difurazone] | did not inhibit an accessory protein | bactericidal | inhibited the growth of both bacteria completely during all times tested | bactericidal | inhibited the growth of both bacteria completely during all times tested | > 400 µg/mL |  |  |  |  |  |  |  |
| O=C(N/N=C/c1ccc([N+](=O)[O-])o1)c1cc([N+](=O)[O-])cc([N+](=O)[O-])c1O [BT06G06, nifursol] | specifically inhibit PheRS | bacteriostatic |  | bacteriostatic |  |  | 60.5 µM | only modestly affected | noncompetitive with both of the natural substrates | 18.5 µg/mL | 2 to 4 log10 | 2 to 4 log10 |  |
| C[C@@H]1C[C@@H]([C@H](O)CC2CC(=O)NC(=O)C2)C(=O)[C@@H](C)C1 [cycloheximide] |  |  |  |  |  |  |  |  |  |  |  |  | greater than 80% |
